The text below walks through data of patent publication EP4768479A1 (Hubei Bio-Pharmaceutical Industrial Technological Institute …, priority 2023, dated 2025).

Data set [1] can be described thus: Liver microsomal stability assay. The class given is in vitro ADME. The note with it: human liver microsomes, NADPH, 37°C; read-out: T1/2 (min) Human. On the procedure: The human liver microsome stability assay was performed by co-incubating the compound with human liver microsomes in vitro. The test compounds were first prepared as 10 mM stock solutions in DMSO solvent, and then diluted to 0.5 mM with acetonitrile. Human liver microsomes (Corning) were diluted with PBS to prepare a microsome/buffer solution, and this solution was used to dilute 0.5 mM of the compound to prepare a working solution. In the working solution, a concentration of the compound was 1.5 µM and a concentration of the human liver microsome was 0.75 mg/mL. A deep-well plate was taken, 30 µL of working solution was added to each well of the plate, and then 15 µL of pre-heated NADPH solution (6 mM) was added to start the reaction. The mixture was incubated at 37°C. 135 µL of acetonitrile was added to the corresponding wells to stop the reaction at 0 minute, 5 minutes, 15 minutes, 30 minutes, and 45 minutes of incubation. Subsequent to the stop of the reaction by means of acetonitrile at the last time point of 45 minutes, the plate was vortexed for 10 minutes (600 rpm/min) and then centrifuged for 15 minutes. After the centrifugation, the supernatant was taken, and purified water was added in a 1:1 ratio for LC-MS/MS detection. The ratio of a peak area of the compound to a peak area of the internal standard at individual time points was obtained. The peak area ratios of the compound at 5 minutes, 15 minutes, 30 minutes, and 45 minutes were compared with the peak area ratio at 0 minute, and the remaining percentage of the compound at each time point was calculated. T1/2 was calculated using Graphpad8 software. [Table 3] Liver Microsomal Stability of Compounds
(Liver microsomes are vesicles of endoplasmic reticulum, rich in cytochrome P450 enzymes.)

Data set [2] is described as follows: Bidirectional permeability study in Caco-2 cells. The class given is in vitro ADME. Particulars: human, pH 7.4, Caco-2, 2.00 µM, A to B. The protocol:
Caco-2 cells were inoculated onto […] (PET) in 96-well inserted plates at a rate of 1×10^5 cells/cm^2, and the medium was changed every 4 to 5 days until day 21 to 28, to form a fused cell monolayer. The transport buffer in the assay was HBSS and 10.0 mM HEPES, with a pH of 7.40±0.05. The test compounds were subjected to a bidirectional test at 2.00 µM in the presence and absence of GF120918 (10.0 µM). Digoxin was subjected to a bidirectional test at 10.0 µM in the presence and absence of GF120918 (10.0 µM), while Nadolol and Metoprolol were subjected to a test from direction A to direction B at 2.00 µM in the absence of GF120918 (10.0 µM). The above tests were performed in duplicate. The final concentration of DMSO was adjusted to be lower than 1%. The plate was incubated in a CO2 incubator at 37°C±1°C for 2 hours, and 5% CO2 was added under saturated humidity without shaking. All the samples, after being mixed with acetonitrile containing internal standard, were centrifuged at 3,200 g for 10 minutes. For Nadolol and Metoprolol, 200 µL of supernatant was diluted with 600 µL of distilled water for LC-MS/MS analysis. For Digoxin and test compounds, 200 µL of supernatant was diluted with 200 µL of distilled water for LC-MS/MS analysis. The concentrations of the test compounds and control compounds in the starting solution, the donor solution, and the acceptor solution were quantified by LC-MS/MS based on a peak area ratio of the analyte to the internal standard.
After the transport assay, the integrity of the Caco-2 cell monolayer was determined using Lucifer Yellow Exclusion Assay. [Table 4] Bidirectional Permeability of Compounds in Caco-2 Cells
A general note: Passage across Caco-2 layers is used to estimate intestinal permeability.

Data set [3] can be described thus: Pharmacokinetic study following single oral gavage administration to cynomolgus monkeys. The class given is in vivo. Particulars: cynomolgus monkey, plasma, 5 mg/kg; Monkey PK PO (5 mpk). On the procedure:
The compounds were dissolved in a vehicle consisting of 5% DMSO+10% Solutol+85% Saline to a concentration of 1 mg/mL, and administered at a dose of 5 mpk. The animals were weighed before the administration, and the dosing volume was calculated based on the body weight. The compounds were administered to the animals via oral gavage. Blood samples were collected via a femoral vein or other suitable methods at time points of 0.083 hours, 0.25 hours, 0.5 hours, 1 hour, 2 hours, 4 hours, 6 hours, 8 hours, and 24 hours. Approximately 1 mL of each sample was collected at each time point, anticoagulated with sodium heparin, and placed on ice immediately after the collection. After the blood samples were collected, they were placed on ice and centrifuged within 1 hour to separate plasma (centrifugation conditions: 2,200g, 10 minutes, and 2°C to 8°C). The plasma samples were stored in a -80°C refrigerator until analysis.
The bioanalytical method and sample analysis were performed by the Analytical Laboratory of Medicilon Inc. (Shanghai, China). Intra-day accuracy of quality control samples was evaluated concurrently with the sample analysis, requiring that accuracy of more than 66.7% of the quality control samples fell within the range of 80% to 120%. [Table 5] Pharmacokinetics of Compounds in Monkeys

SMILES strings stand for the structures.

As for `CCCCOC(=O)NS(=O)(=O)c1sc(CC(C)C)cc1-c1ccc(Cn2ccnc2)cc1` [Control Compound I, reference compound], the half-life at 1 µM in data set [1] stood at 9.13 min. For the same molecule, the Papp A→B at 2 h, 2 µM in data set [2] stood at 0.381 ×10⁻⁶ cm/s. In data set [3], this molecule showed an AUC(0-t) of 4920 ng·h/mL and a Cmax of 1320 ng/mL.

Regarding `COC(=O)NS(=O)(=O)c1sc(CC(C)C)c(C)c1-c1ccc(Cn2ccnc2C(F)(F)F)cc1` [Compound I-9, Methyl ((5-isobutyl-4-methyl-3-(4-((2-(trifluoromethyl)-1H-imidazol-1-yl)methyl)phenyl)thiophen-2-yl)sulfonyl)carbamate], the half-life at 1 µM in data set [1] was determined as 50.2 min. This molecule also registered a Papp A→B at 2 h, 2 µM in data set [2] of 2.29 ×10⁻⁶ cm/s. In data set [3], this molecule gave an AUC(0-t) of 7790 ng·h/mL and a Cmax of 5310 ng/mL.

`COC(=O)NS(=O)(=O)c1sc(CC(C)C)c(C)c1-c1ccc(Cn2ccnc2C(C)(C)O)cc1` [Compound I-19, Methyl ((3-(4-((2-(2-hydroxypropan-2-yl)-1H-imidazol-1-yl)methyl)phenyl)-5-isobutyl-4-methylthiophen-2-yl)sulfonyl)carbamate]: the half-life at 1 µM in data set [1] was found to be 71.2 min. This molecule also came in with a Papp A→B at 2 h, 2 µM in data set [2] of 3.24 ×10⁻⁶ cm/s. In data set [3], the AUC(0-t) was 6820 ng·h/mL and the Cmax amounted to 4030 ng/mL.

`Cc1c(CC(C)C)sc(S(=O)(=O)NC(=O)OCCO)c1-c1ccc(Cn2ccnc2C(F)(F)F)cc1` [Compound I-13, 2-hydroxyethyl ((5-isobutyl-4-methyl-3-(4-((2-(trifluoromethyl)-1H-imidazol-1-yl)methyl)phenyl)thiophen-2-yl)sulfonyl)carbamate]: in data set [1], the half-life at 1 µM turned out to be 46.4 min. In addition, the Papp A→B at 2 h, 2 µM in data set [2] is 1.98 ×10⁻⁶ cm/s.

Turning to `Cc1c(CC(C)C)sc(S(=O)(=O)Nc2ncccn2)c1-c1ccc(Cn2ccnc2Cl)cc1` [Compound I-23, 3-(4-((2-chloro-1H-imidazol-1-yl)methyl)phenyl)-5-isobutyl-4-methyl-N-(pyrimidin-2-yl)thiophene-2-sulfonamide], the half-life at 1 µM in data set [1] amounted to 39.3 min. The molecule also registered a Papp A→B at 2 h, 2 µM in data set [2] of 5.22 ×10⁻⁶ cm/s.

As to `Cc1c(CC(C)C)sc(S(=O)(=O)NC(=O)OCC(C)(C)O)c1-c1ccc(Cn2ccnc2C(F)(F)F)cc1` [Compound I-10, 2-hydroxy-2-methylpropyl ((5-isobutyl-4-methyl-3-(4-((2-(trifluoromethyl)-1H-imidazol-1-yl)methyl)phenyl)thiophen-2-yl)sulfonyl)carbamate], the half-life at 1 µM in data set [1] turned out to be 83.2 min. This molecule also showed a Papp A→B at 2 h, 2 µM in data set [2] of 2.63 ×10⁻⁶ cm/s. Moreover, in data set [3], the AUC(0-t) was determined as 5570 ng·h/mL and the concentration peaked (Cmax) at 3560 ng/mL.

In the case of `COC(=O)NS(=O)(=O)c1sc(CC(C)C)c(C)c1-c1ccc(Cn2ccnc2Cl)c(F)c1` [Compound I-14, Methyl ((3-(4-((2-chloro-1H-imidazol-1-yl)methyl)-3-fluorophenyl)-5-isobutyl-4-methylthiophen-2-yl)sulfonyl)carbamate], the half-life at 1 µM in data set [1] is 45 min. In data set [2], this molecule had a Papp A→B at 2 h, 2 µM of 3.73 ×10⁻⁶ cm/s. In data set [3], this molecule returned an AUC(0-t) of 7350 ng·h/mL and a Cmax of 5040 ng/mL.

Broadly, the Papp A→B is how fast a substance crosses the layer from the apical side. Broadly, the AUC(0-t) is exposure summed from dosing to a finite time, without extrapolation to infinity. One may read the Cmax as the peak of the concentration-time curve.
